30 compounds from doi:10.1101/2021.10.07.463234v2 (biorxiv, 2021) can be followed below.

The test deals with SARS-CoV-2 Mac1 (Severe acute respiratory syndrome coronavirus 2, UniProt P0DTD1). In words: biochemical. The following applies: for inhibition at 100 µM: read-out: %inhibition; for %inhibition: 100 µM, inhibitor.

Structures are written as SMILES. Counter-ions that a name gives are not always drawn.

What is called inhibition is the share of the control response that was lost under treatment. For `COc1ccccc1Oc1c(NS(=O)(=O)c2ccc(C(C)(C)C)cc2)nc(-c2ncccn2)nc1OCCO` [Bosentan Hydrate], the inhibition at 100 µM was found to be 0.962%.
Same read-out and setting: under `COc1cc(Nc2c(C#N)cnc3cc(OCCCN4CCN(C)CC4)c(OC)cc23)c(Cl)cc1Cl` [Bosutinib (SKI-606)] stands 55.6%; under `O=c1ccc2ccc(OCCCCN3CCN(c4cccc5sccc45)CC3)cc2[nH]1` [Brexpiprazole], 0%; under `Brc1c(NC2=NCCN2)ccc2nccnc12` [Brimonidine Tartrate], 19.3%.
On the same count and under the same terms, in the case of `CCN[C@H]1CN(CCCOC)S(=O)(=O)c2sc(S(N)(=O)=O)cc21` [Brinzolamide] it was 0%.
For `CCC[C@@H]1CC(=O)N([C@@H](CC)C(N)=O)C1` [Brivaracetam], the inhibition at 100 µM turned out to be 24.6%.
For `O=c1[nH]c(=O)n([C@H]2C[C@H](O)[C@@H](CO)O2)cc1/C=C/Br` [Brivudine], the inhibition at 100 µM was 17.8%.
`Nc1c(CC(=O)O)cccc1C(=O)c1ccc(Br)cc1` [Bromfenac Sodium]: the inhibition at 100 µM is 8.6%.
Still for that read-out and setting: in the case of `CN(Cc1cc(Br)cc(Br)c1N)C1CCCCC1` [Bromhexine HCl] it was 0%; in that of `CC(C)C(Br)C(=O)NC(N)=O` (stereo not drawn) [Bromisoval], 0%.
Still for that read-out and setting: in the case of `CN(C)CCC(c1ccc(Br)cc1)c1ccccn1` (stereo not drawn) [Brompheniramine hydrogen maleate] it was 9.47%; in that of `O=[N+]([O-])C(Br)(CO)CO` [Bronopol], 0%; in that of `Oc1c(Br)cc(Br)c2cccnc12` [Broxyquinoline], 0%.
Still for that read-out and setting: in the case of `COc1cc2c(cc1OC)[C@@]13CCN4CC5=CCO[C@H]6CC(=O)N2[C@H]1[C@H]6[C@H]5C[C@H]43` [Brucine sulfate salt hydrate] it was 0%.
On to `CCOc1ccc(NC(=O)CC(C)O)cc1` (stereo not drawn) [Bucetin], for which the inhibition at 100 µM stood at 2.67%.
Regarding `CCCC1O[C@@H]2C[C@H]3[C@@H]4CCC5=CC(=O)C=C[C@]5(C)[C@H]4[C@@H](O)C[C@]3(C)[C@]2(C(=O)CO)O1` (stereo partly drawn) [Budesonide], the inhibition at 100 µM was 12.3%.
Still for that read-out and setting: in the case of `CCCCOc1ccc(CC(=O)NO)cc1` [Bufexamac] it was 14.1%.
Turning to `COc1cc(OC)c(C(=O)CCCN2CCCC2)c(OC)c1` [Buflomedil HCl], the inhibition at 100 µM is 0%.
On the same count and under the same terms, in the case of `CCCCNc1cc(C(=O)O)cc(S(N)(=O)=O)c1Oc1ccccc1` [Bumetanide] it was 25.7%.
Still for that read-out and setting: under `CCCCN1CCCCC1C(=O)Nc1c(C)cccc1C` (stereo not drawn) [Bupivacaine HCl] stands 0%.
On to `O=C1CC2(CCCC2)CC(=O)N1CCCCN1CCN(c2ncccn2)CC1` [Buspirone HCl], for which the inhibition at 100 µM stood at 7.05%.
Still for that read-out and setting: in the case of `CS(=O)(=O)OCCCCOS(C)(=O)=O` [Busulfan] it was 0%.
On the same count and under the same terms, in the case of `CCCCOC(=O)c1ccc(N)cc1` [Butamben] it was 2.1%; in that of `CN(Cc1ccc(C(C)(C)C)cc1)Cc1cccc2ccccc12` [Butenafine HCl], 0%.
By %inhibition is commonly meant the drop in the measured response relative to a control, in per cent. Consider `Clc1ccc(CCC(Cn2ccnc2)Sc2c(Cl)cccc2Cl)cc1` (stereo not drawn) [Butoconazole nitrate], for which the “%inhibition” value was 4.358%.
Consider `Clc1ccc(CCC(Cn2ccnc2)Sc2c(Cl)cccc2Cl)cc1` (stereo not drawn) [Butoconazole], for which the “%inhibition” value was 13.63%.
Consider `CCCCOC(=O)c1ccc(O)cc1` [Butylparaben], for which the inhibition at 100 µM came out at 0%.
Take `CCCC[N+]1(C)[C@@H]2C[C@@H](OC(=O)[C@H](CO)c3ccccc3)C[C@H]1[C@@H]1O[C@@H]12` (stereo partly drawn) [Butylscopolamine Bromide]: the inhibition at 100 µM is 0%.
Turning to `NC(=O)c1cc(N2CC2)c([N+](=O)[O-])cc1[N+](=O)[O-]` [CB1954], the inhibition at 100 µM was 5.18%.
On the same count and under the same terms, in the case of `C#Cc1cccc(Nc2ncnc3cc(OC)c(OCCCCCCC(=O)NO)cc23)c1` [CUDC-101] it was 6.86%.
